The source of these data is patent US20190275012A9, “SUBSTITUTED THIAZOLO-PYRIDINE COMPOUNDS AS MALT1 INHIBITORS” (Lupin Limited, priority 2016, published 2019).

SMILES strings stand for the structures.

Experiment [1] has as its system NF-kB transcriptional activity in HEK-293-NF-kB-Luc cell line overexpressing MALT1. Kind of experiment: NF-kB reporter assay (luciferase, MALT1 stably overexpressed). Format: cell-based. The conditions noted are these: Homo sapiens, 24 h, HEK-293-NF-kB-Luc cells stably overexpressing MALT1, 24 h treatment, Bright Glo luminescence; read-out: NF-kB inhibition IC50. An outline of the steps:
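Inhibition of NF-κB activity was expressed relative to 0.1% DMSO wells, from luminescence after 10 min Bright Glo at ambient temperature. Compounds had been applied for 24 h to adhered MALT1-overexpressing HEK-293 NF-κB luciferase reporter cells.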

Another experiment concerns the target T1, full length MALT1 enzyme (Homo sapiens, UniProt Q9UDY8).
T1 construct: a fluorescence based assay with full length MALT1 enzyme
T1 sequence (Q9UDY8 1-824): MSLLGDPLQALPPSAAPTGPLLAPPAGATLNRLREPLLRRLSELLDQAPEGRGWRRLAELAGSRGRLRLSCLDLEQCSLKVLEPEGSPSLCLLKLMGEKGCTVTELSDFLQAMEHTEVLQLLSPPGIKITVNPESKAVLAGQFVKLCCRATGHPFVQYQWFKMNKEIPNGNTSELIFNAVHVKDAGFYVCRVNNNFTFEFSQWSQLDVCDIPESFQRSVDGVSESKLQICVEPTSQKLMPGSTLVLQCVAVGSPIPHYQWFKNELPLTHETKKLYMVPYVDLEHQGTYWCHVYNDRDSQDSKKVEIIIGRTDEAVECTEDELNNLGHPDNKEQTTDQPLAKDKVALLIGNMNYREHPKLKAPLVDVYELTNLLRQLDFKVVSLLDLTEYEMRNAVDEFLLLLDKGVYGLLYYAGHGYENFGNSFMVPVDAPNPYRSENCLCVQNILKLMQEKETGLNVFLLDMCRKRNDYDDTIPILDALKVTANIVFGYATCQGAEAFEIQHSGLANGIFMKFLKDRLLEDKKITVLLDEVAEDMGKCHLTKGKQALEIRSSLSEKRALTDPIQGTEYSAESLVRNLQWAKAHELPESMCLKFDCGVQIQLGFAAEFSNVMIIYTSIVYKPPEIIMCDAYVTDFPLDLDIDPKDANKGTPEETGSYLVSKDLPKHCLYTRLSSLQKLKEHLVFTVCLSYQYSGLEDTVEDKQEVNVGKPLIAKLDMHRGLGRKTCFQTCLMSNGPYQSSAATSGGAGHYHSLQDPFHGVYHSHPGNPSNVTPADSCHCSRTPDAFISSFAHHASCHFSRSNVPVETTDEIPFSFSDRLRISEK
Kind of experiment: MALT1 biochemical assay (fluorescence based, Ac-Leu-Arg-Ser-Arg-AMC cleavage). As to conditions: full length MALT1 protein, 2 h pre-incubation at RT, tetrapeptide substrate Ac-Leu-Arg-Ser-Arg-AMC, read-out: Malt 1 inhibition IC50. Here is the method: The biochemical potency of the MALT1 inhibitors was tested by using a fluorescence based assay with full length MALT1 enzyme. The assay principle makes use of the preferential cleavage by MALT1 after the Arginine residue. Thus, the substrate used is a tetrapeptide (Ac-Leu-Arg-Ser-Arg-AMC; Catalogue # SMAMC013, SM Biochemicals) which is cleaved by active MALT1 releasing the AMC which is fluorescent. Upon addition of the MALT1 protease inhibitors, the proteolytic activity (and accordingly AMC fluorescence) is reduced in a dose dependent manner. The kinetic characterization of the enzymatic reaction was measured by determining the Michaelis constant, Km, of the reaction (approximately 130=A/I). The assay buffer consisted of 50 mM MES, 150 mM NaCl, 0.1% w/v CHAPS, 1 M Ammonium citrate and 10 mM DTT (pH=7). The assay was established for the 384-well plate format using black microtiter square well plates (Optiplate 384-F, Perkin Elmer). The test compounds were dissolved in 100% DMSO at a stock concentration of 10 mM. Serial dilutions were made first in 100% DMSO. The final concentration of DMSO was 0.5% by wt.
For determining the extent of inhibition of MALT1 protease activity by MALT1 inhibitors, 10⇒| of the test compound solutions were pre-incubated with 10⇒| of MALT1 full length protein (100-300 ng protein/well) for 2 h at RT. This was followed by 10⇒| of substrate addition at a final concentration of 100⇒M for an additional 4-12 h. The increase in assay signal was linear over this period of time and proportional with increase in the enzyme content. The final concentrations of the test compounds typically ranged from 10000 nM to 0.03 nM in an alternate 3.16 and 3 serial dilutions. The positive control for the reaction contained enzyme and DMSO (without any test compound) and was considered to have 100% enzyme activity (0% inhibition) and the negative control containing only buffer and DMSO (without any enzyme) was considered to have no enzymatic activity (100% inhibition). The fluorescence was recorded in a Spectra Max plate reader, Molecular Devices, with a fluorescence excitation at 360 nm and emission recording at 460 nm. The fluorescence units were transformed to percentage inhibitions by using the positive and negative controls as references as per the following formula.
[formula] Positive control=Reaction containing enzyme+substrate+DMSO
Negative control=Reaction containing substrate+DMSO but no enzyme
The IC50 values of individual compounds were calculated with Non Linear Regression Analysis using Graph Pad Prism (Graph Pad software, Inc, USA).

As for `COC1CCCN(c2c(NC(=O)Nc3cnc(-n4nccn4)c(Cl)c3)cnc3sc(C)nc23)C1` (racemic) [Compound 52, (ě)-1-(5-Chloro-6-(2H-1,2,3-triazol-2-yl)pyridin-3-yl)-3-(7-(3-methoxypiperidin-1-yl)-2-methylthiazolo[5,4-b]pyridin-6-yl)urea], the IC50 fell in the range of 0.101 to 0.5 µM in experiment [1] and 0.001 to 0.05 µM at full length MALT1 enzyme.
The like results for `Cc1nc2c(N3CCCCC3)c(NC(=O)Nc3cnc(-n4nccn4)c(Cl)c3)cnc2s1` [Compound 40, 1-(5-Chloro-6-(2H-1,2,3-triazol-2-yl)pyridin-3-yl)-3-(2-methyl-7-(piperidin-1-yl)thiazolo[5,4-b]pyridin-6-yl)urea] were, in that order, 0.001 to 0.1 µM and 0.001 to 0.05 µM.
The like results for `COCC1CCCN(c2c(NC(=O)Nc3cnc(-n4nccn4)c(Cl)c3)cnc3sc(C)nc23)C1` (racemic) [Compound 50, (ě)-1-(5-Chloro-6-(2H-1,2,3-triazol-2-yl)pyridin-3-yl)-3-(7-(3-(methoxymethyl)piperidin-1-yl)-2-methylthiazolo[5,4-b]pyridin-6-yl)urea] were, in that order, 0.101 to 0.5 µM and 0.001 to 0.05 µM.
The like results for `COCC1CCCN(c2c(NC(=O)Nc3cnc(OC)c(Cl)c3)cnc3sc(C)nc23)C1` (racemic) [Compound 51, (ě)-1-(5-Chloro-6-methoxypyridin-3-yl)-3-(7-(3-(methoxymethyl)piperidin-1-yl)-2-methylthiazolo[5,4-b]pyridin-6-yl)urea] were, in that order, 0.501 to 1.5 µM and 0.051 to 0.1 µM.
Turning to `Cc1nc2c(C3CC3)c(NC(=O)Nc3ccc(-n4ncnc4C)c(C#N)c3)cnc2s1` [Compound 172, 1-(3-Cyano-4-(5-methyl-1H-1,2,4-triazol-1-yl)phenyl)-3-(7-eyelopropyl-2-methylthiazolo[5,4-b]pyridin-6-yl)urea], the IC50 in experiment [1] fell in the range of 0.501 to 1.5 µM; at full length MALT1 enzyme, 0.051 to 0.1 µM.
`COc1cc(F)ccc1-c1c(NC(=O)Nc2cnc(OC)c(Cl)c2)cnc2sc(C)nc12` [Compound 15, 1-(5-Chloro-6-methoxypyridin-3-yl)-3-(7-(4-fluoro-2-methoxyphenyl)-2-methylthiazolo[5,4-b]pyridin-6-yl)urea]: the IC50 fell in the range of 0.501 to 1.5 µM in experiment [1] and 0.001 to 0.05 µM at full length MALT1 enzyme.
The like results for `COCC1(c2c(NC(=O)Nc3cnc(-n4nccn4)c(C(F)(F)F)c3)cnc3sc(C)nc23)CC1` [Compound 102, 1-(6-(2H-1,2,3-Triazol-2-yl)-5-(trifluoromethyl)pyridin-3-yl)-3-(7-(1-(methoxymethyl)cyclopropyl)-2-methylthiazolo[5,4-b]pyridin-6-yl)urea] were, in that order, 0.001 to 0.1 µM and 0.001 to 0.05 µM.
The matching figures for `Cc1nc2c(C3CC3)c(NC(=O)Nc3cc(Cl)cnc3OCCN(C)C)cnc2s1` [Compound 195, 1-(5-Chloro-2-(2-(dimethylamino)ethoxy)pyridin-3-yl)-3-(7-cyclopropyl-2-methylthiazolo[5,4-b]pyridin-6-yl)urea]: 0.001 to 0.1 µM and 0.051 to 0.1 µM.
As for `CCc1c(NC(=O)Nc2ccc(OC)c(Cl)c2)cnc2sc(C)nc12` [Compound 25, 1-(3-Chloro-4-methoxyphenyl)-3-(7-ethyl-2-methylthiazolo[5,4-b]pyridin-6-yl)urea], the IC50 was 0.501 to 1.5 µM in experiment [1] and 0.001 to 0.05 µM on full length MALT1 enzyme.
The like results for `COC(C)c1c(NC(=O)Nc2ccc(-c3cnco3)c(Cl)c2)cnc2sc(C)nc12` (single isomer, unassigned) [Compound 204, (S) or (R)-1-(3-Chloro-4-(oxazol-5-yl)phenyl)-3-(7-(1-methoxyethyl)-2-methylthiazolo[5,4-b]pyridin-6-yl)urea] were, in that order, 0.101 to 0.5 µM and 0.101 to 0.5 µM.
The like results for `CCOC(C)c1c(NC(=O)Nc2cc(Cl)cnc2OC)cnc2sc(C)nc12` (single isomer, unassigned) [Compound 167b, 1-(5-Chloro-2-methoxypyridin-3-yl)-3-(7-(1-ethoxyethyl)-2-methylthiazolo[5,4-b]pyridin-6-yl)urea] were, in that order, 0.001 to 0.1 µM and 0.051 to 0.1 µM.
For `Cc1nc2c(C(C)N(C)C)c(NC(=O)Nc3cnc(-n4nccn4)c(C(F)(F)F)c3)cnc2s1` (single isomer, unassigned) [Compound 74b, 1-(6-(2H-1,2,3-Triazol-2-yl)-5-(trifluoromethyl)pyridin-3-yl)-3-(7-(1-(dimethylsmino)ethyl)-2-methylthiazolo[5,4-b]pyridin-6-yl)urea], the values for the IC50 (in experiment [1]; on full length MALT1 enzyme) were 0.001 to 0.1 µM and 0.001 to 0.05 µM, respectively.
The like results for `COc1ncc(NC(=O)Nc2cnc3sc(C)nc3c2N(C)C)cc1Cl` [Compound 110, 1-(5-Chloro-6-methoxypyridin-3-yl)-3-(7-(dimethylamino)-2-methylthiazolo[5,4-b]pyridin-6-yl)urea] were, in that order, 0.501 to 1.5 µM and 0.051 to 0.1 µM.
On to `CCc1nc2c(C(C)OC)c(NC(=O)Nc3ccc(-n4nccn4)c(Cl)c3)cnc2s1` (single isomer, unassigned) [Compound 233b, 1-(3-Chloro-4-(2H-1,2,3-triazol-2-yl)phenyl)-3-(2-ethyl-7-(1-methoxyethyl)thiazolo[5,4-b]pyridin-6-yl)urea], for which the IC50 in experiment [1] is 0.101 to 0.5 µM; on full length MALT1 enzyme, 0.001 to 0.05 µM.
As for `CCC(OC)c1c(NC(=O)Nc2ccc(-n3nccn3)c(Cl)c2)cnc2sc(C)nc12` (single isomer, unassigned) [Compound 126b, 1-(3-Chloro-4-(2H-1,2,3-triazol-2-yl)phenyl)-3-(7-(1-methoxypropyl)-2-methylthiazolo[5,4-b]pyridin-6-yl)urea], the IC50 lay within 0.001 to 0.1 µM in experiment [1] and 0.001 to 0.05 µM at full length MALT1 enzyme.
The matching figures for `COC(CC1CC1)c1c(NC(=O)Nc2cnc(-n3nccn3)c(C(F)(F)F)c2)cnc2sc(C)nc12` (single isomer, unassigned) [Compound 240b, 1-(6-(2H-1,2,3-Triazol-2-yl)-5-(trifluoromethyl)pyridin-3-yl)-3-(7-(2-cyclopropyl-1-methoxyethyl)-2-methylthiazolo[5,4-b]pyridin-6-yl)urea]: 0.001 to 0.1 µM and 0.001 to 0.05 µM.
Turning to `Cc1nc2c(C3CC3)c(NC(=O)Nc3cc(C(F)(F)F)cn(C)c3=O)cnc2s1` [Compound 5, 1-(7-Cyclopropyl-2-methylthiazolo[5,4-b]pyridin-6-yl)-3-(1-methyl-2-oxo-5-(trifluoromethyl)-1,2-dihydropyridin-3-yl)urea], the IC50 (in experiment [1]; on full length MALT1 enzyme) was 0.101 to 0.5 µM in each case.
Take `COC(c1ccccc1)c1c(NC(=O)Nc2cnc(-n3nccn3)c(Cl)c2)cnc2sc(C)nc12` (single isomer, unassigned) [Compound 84b, 1-(5-Chloro-6-(2H-1,2,3-triazol-2-yl)pyridin-3-yl)-3-(7-(methoxy(phenyl)methyl)-2-methylthiazolo[5,4-b]pyridin-6-yl)urea]: the IC50 in experiment [1] is 0.001 to 0.1 µM; on full length MALT1 enzyme it was 0.001 to 0.05 µM.

As usually defined, the IC50 is the midpoint of a concentration-inhibition curve.
